Measurements published in patent US5200309A, “Color photographic materials including magenta coupler, carbonamide compound and aniline or amine compound, and methods” (Eastman Kodak Company, priority 1991, dated 1993).

Experiment: Potentiometric titration of dispersion pKa of couplers (two-phase aqueous dispersion)
Type: physicochemical
Excerpt: Preferred two-equivalent magenta dye-forming couplers for the practice of this invention include those that have pKa values of less than 10.0 when dispersed together with a coupler solvent. Potentiometric titrations were used to measure pKa values for some of the preferred couplers of the invention as aqueous dispersions. In these two-phase mixtures, the term pKa denotes the aqueous buffer pH at which half of the coupler in the oil phase is ionized or ion paired. Table I lists dispersion pKa values measured with 0.50 M potassium counter ion.

[1] = coupler solvent S2, coupler:solvent weight ratio 1:2, 0.50 M potassium
[2] = coupler solvent C5, coupler:solvent weight ratio 1:1, 0.50 M potassium
[3] = coupler solvent S1, coupler:solvent weight ratio 1:1, 0.50 M potassium

| pKa(0.5M K+) [1] | pKa(0.5M K+) [2] | pKa(0.5M K+) [3] | pKa(0.5M K+) (coupler solvent C1, coupler:solvent weight ratio 1:2, 0.50 M potassium) | SMILES |
| --- | --- | --- | --- | --- |
| 8.5 |  |  |  | CCCCCCCCCCCCNS(=O)(=O)c1ccc(NC2=NN(c3c(Cl)cc(Cl)cc3Cl)C(=O)C2Sc2cc(C(C)(C)CC(C)(C)C)ccc2OCCCC)c(Cl)c1 (stereo not drawn) [Coupler M1] |
|  | 8.0 | 7.6 |  | CCCCCCCCCCCCNS(=O)(=O)c1ccc(NC2=NN(c3c(Cl)cc(Cl)cc3Cl)C(=O)C2Sc2ccccc2NC(=O)C(CC)Oc2ccc(C(C)(C)CC)cc2C(C)(C)CC)c(Cl)c1 (stereo not drawn) [Coupler M4] |

Further lines, the molecule ahead of its results:

| SMILES | pKa(0.5M K+) [1] | pKa(0.5M K+) [2] | pKa(0.5M K+) [3] | pKa(0.5M K+) (coupler solvent C1, coupler:solvent weight ratio 1:2, 0.50 M potassium) |
| --- | --- | --- | --- | --- |
| CCCCCCCCCCCCCC(=O)Nc1ccc(Cl)c(NC2=NN(c3c(Cl)cc(Cl)cc3Cl)C(=O)C2Sc2ccccc2NC(=O)C(CC)Oc2ccc(C(C)(C)CC)cc2C(C)(C)CC)c1 (stereo not drawn) [Coupler M3] |  | 8.2 | 7.9 |  |
| CCCCCCCCCCCCCCCC(=O)Nc1ccc(Cl)c(NC2=NN(c3c(Cl)c(Cl)c(Cl)c(Cl)c3Cl)C(=O)C2Sc2ccccc2NC(=O)OCc2ccccc2)c1 (stereo not drawn) [Coupler M7] | 7.5 |  |  |  |
| CCCCCCCCCCCCNS(=O)(=O)c1ccc(NC2=NN(c3c(Cl)cc(Cl)cc3Cl)C(=O)C2Sc2ccccc2NC(=O)CCCCCCCCCCC)c(Cl)c1 (stereo not drawn) [Coupler M8] | 7.9 |  |  |  |
| CCCCCCCCCCCCCCCCCCNS(=O)(=O)c1ccc(Cl)c(NC2=NN(c3c(Cl)cc(Cl)cc3Cl)C(=O)C2Sc2cc(C(C)C)ccc2C(C)C)c1 (stereo not drawn) [Coupler M20] | 8.4 |  |  | 8.9 |
